# Results reported in patent US11191743B2, “Modulators of zinc activated cation channel” (Dignity Health, priority 2016, dated 2021).
# “Also recorded” adds a separate entry of the source. Where two headings read alike, the source gives them in different places.
# Experiments:
# [1] = molecular target: T1, ZACN (Homo sapiens, UniProt Q401N2); set-up: host or cells: HEK cells (exogenous expression); details: cited from earlier work
# T1 sequence (Q401N2 26-412): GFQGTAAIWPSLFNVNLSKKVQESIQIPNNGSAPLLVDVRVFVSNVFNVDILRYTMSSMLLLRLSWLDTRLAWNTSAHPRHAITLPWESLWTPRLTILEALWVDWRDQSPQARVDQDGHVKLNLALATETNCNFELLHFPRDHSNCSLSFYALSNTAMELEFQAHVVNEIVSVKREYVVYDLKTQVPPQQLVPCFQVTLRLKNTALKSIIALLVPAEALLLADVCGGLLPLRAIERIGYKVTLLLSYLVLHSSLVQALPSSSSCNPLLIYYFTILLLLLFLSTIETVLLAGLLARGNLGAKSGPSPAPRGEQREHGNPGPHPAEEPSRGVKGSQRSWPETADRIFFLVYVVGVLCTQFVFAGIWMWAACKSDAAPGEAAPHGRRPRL
# [2] = tested on: iTreg-induced immunosuppression of T cell division; assay type: cell-based, human
# Experimental: Live Treg cells (CD4+CD25^high) and conventional T cells (Tconv cells) (CD4+CD25−) are obtained by immunomagnetic cell isolation kit from human iTreg. Tconv cells are labeled with CFSE (10 uM for 10 min). After washing, the labeled cells are distributed into multiple wells (1×10^5/well) in a round bottom 96-well plate with various numbers (2-fold serial dilutions from 1×10^5/well) of Treg cells in each well. The mixed cells (Treg and Tconv with different ratios) are co-cultured for 72 h in the presence of anti-CD3/CD28-coated sulfate latex beads. The intensity of CFSE fluorescence that declines upon division of the labeled cells is measured by flow cytometry.
# As disclosed throughout the disclosure, and specifically in FIG. 7, Zinc and/or d-tubocurarine has an influence on iTreg suppression function. CFSE Immunosuppression Assay uses a cell permeable reactive fluorescent dye, CFSE. After entering cells, CFSE interacts with intracellular proteins, and permanently stain the cell. The fluorescence intensity will decrease along with the T cell division.
# [3] = molecular target: T2, glycine (α1) receptor (Homo sapiens, UniProt P23415); assay: Application of NBT to other Cys-loop receptors; assay type: cell-based; details: listed as NBT
# T2 construct: expressed in transfected cells
# T2 sequence (P23415 29-457): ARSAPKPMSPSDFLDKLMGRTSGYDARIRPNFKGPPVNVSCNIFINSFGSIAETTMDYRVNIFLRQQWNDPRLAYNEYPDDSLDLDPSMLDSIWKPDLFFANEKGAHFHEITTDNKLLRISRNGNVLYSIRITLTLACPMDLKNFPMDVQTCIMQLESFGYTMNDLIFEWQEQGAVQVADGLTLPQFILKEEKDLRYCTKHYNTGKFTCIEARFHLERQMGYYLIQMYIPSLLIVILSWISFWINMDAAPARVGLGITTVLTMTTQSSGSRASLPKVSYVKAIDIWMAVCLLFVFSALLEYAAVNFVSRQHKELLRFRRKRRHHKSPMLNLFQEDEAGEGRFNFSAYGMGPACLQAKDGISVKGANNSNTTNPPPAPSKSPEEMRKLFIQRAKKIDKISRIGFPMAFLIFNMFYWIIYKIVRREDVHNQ
# Excerpt: (§1) To date the only known agonist and antagonist for ZACN are Zn^2+ (agonist) and d-tubocurarine (antagonist).
# [4] = molecular target: T3, GABAA (α6β2δ) receptor (Homo sapiens, UniProt O14764+P47870+Q16445); assay: Application of NBT to other Cys-loop receptors; assay type: cell-based; details: listed as NBT
# T3 construct: expressed in transfected cells
# T3 sequence (Q16445 20-453): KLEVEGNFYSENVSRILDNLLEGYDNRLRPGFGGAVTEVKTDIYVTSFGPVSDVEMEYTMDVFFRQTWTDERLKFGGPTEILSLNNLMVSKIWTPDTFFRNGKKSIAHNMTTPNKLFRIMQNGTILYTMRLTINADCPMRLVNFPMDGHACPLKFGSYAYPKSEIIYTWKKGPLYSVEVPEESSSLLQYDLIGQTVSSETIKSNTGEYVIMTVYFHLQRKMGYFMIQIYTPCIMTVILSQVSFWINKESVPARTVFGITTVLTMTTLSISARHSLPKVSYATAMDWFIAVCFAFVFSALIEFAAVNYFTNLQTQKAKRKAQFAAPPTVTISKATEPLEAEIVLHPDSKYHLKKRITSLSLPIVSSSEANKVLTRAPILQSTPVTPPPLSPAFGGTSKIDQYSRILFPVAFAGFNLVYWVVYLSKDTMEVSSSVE
# T3 sequence (P47870 25-512 limits assumed): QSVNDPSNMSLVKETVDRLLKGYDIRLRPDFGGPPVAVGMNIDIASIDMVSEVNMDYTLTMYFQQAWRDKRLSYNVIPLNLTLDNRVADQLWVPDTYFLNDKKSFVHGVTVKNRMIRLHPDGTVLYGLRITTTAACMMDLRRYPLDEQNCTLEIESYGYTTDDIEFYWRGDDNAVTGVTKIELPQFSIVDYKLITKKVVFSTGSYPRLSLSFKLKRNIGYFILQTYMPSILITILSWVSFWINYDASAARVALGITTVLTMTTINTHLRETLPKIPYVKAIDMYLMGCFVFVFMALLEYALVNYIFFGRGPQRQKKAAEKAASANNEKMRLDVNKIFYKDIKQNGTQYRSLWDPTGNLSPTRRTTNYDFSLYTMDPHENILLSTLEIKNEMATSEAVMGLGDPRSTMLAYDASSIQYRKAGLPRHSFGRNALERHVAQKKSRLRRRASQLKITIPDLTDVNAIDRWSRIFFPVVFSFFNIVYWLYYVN
# T3 sequence (O14764 17-452 limits assumed): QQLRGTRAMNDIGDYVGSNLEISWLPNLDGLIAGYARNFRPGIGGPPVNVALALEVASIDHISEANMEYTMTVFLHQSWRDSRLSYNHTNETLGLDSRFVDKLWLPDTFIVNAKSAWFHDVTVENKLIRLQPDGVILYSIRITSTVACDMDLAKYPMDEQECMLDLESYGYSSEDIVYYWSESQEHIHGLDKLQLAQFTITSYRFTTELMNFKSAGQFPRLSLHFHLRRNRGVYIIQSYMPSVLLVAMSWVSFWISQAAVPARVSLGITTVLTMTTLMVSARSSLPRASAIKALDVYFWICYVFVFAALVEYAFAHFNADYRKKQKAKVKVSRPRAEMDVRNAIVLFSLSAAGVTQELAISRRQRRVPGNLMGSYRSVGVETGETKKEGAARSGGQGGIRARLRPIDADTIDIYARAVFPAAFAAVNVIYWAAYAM
# Excerpt: as §1
# [5] = molecular target: T4, nACh (α7) receptor (Homo sapiens, UniProt P36544); assay: Application of NBT to other Cys-loop receptors; assay type: cell-based; details: listed as NBT
# T4 construct: expressed in transfected cells
# T4 sequence (P36544 23-502): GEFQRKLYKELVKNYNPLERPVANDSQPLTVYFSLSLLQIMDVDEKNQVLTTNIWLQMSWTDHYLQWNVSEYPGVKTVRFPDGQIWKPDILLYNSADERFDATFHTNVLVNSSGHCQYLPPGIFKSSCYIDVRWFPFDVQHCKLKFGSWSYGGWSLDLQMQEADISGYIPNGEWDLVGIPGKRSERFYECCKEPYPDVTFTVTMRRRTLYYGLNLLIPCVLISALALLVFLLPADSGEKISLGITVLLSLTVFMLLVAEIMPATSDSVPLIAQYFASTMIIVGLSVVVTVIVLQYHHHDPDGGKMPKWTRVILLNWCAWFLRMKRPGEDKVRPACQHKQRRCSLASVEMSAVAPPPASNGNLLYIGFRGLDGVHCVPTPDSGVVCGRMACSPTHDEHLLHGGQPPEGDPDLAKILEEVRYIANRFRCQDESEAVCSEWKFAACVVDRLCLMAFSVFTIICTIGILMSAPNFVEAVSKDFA
# Excerpt: as §1
# [6] = molecular target: T5, nACh (α4β2) receptor (Homo sapiens, UniProt P17787+P43681); assay: Application of NBT to other Cys-loop receptors; assay type: cell-based; details: listed as NBT
# T5 construct: expressed in transfected cells
# T5 sequence (P43681 29-627): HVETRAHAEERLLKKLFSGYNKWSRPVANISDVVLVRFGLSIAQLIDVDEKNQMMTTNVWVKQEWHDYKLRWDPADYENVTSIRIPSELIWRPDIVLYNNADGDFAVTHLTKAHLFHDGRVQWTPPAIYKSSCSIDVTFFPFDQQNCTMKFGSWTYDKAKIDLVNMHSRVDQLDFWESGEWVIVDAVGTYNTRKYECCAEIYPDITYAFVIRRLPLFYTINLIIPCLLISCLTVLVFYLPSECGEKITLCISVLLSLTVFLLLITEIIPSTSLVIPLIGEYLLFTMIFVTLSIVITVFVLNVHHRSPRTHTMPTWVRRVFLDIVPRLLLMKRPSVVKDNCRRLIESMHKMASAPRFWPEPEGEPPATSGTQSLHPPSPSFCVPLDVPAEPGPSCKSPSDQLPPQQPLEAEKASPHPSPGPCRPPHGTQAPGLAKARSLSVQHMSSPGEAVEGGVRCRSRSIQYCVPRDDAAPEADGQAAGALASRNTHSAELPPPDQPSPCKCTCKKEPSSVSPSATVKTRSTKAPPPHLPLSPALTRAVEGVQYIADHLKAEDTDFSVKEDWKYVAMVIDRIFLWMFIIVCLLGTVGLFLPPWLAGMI
# T5 sequence (P17787 26-502): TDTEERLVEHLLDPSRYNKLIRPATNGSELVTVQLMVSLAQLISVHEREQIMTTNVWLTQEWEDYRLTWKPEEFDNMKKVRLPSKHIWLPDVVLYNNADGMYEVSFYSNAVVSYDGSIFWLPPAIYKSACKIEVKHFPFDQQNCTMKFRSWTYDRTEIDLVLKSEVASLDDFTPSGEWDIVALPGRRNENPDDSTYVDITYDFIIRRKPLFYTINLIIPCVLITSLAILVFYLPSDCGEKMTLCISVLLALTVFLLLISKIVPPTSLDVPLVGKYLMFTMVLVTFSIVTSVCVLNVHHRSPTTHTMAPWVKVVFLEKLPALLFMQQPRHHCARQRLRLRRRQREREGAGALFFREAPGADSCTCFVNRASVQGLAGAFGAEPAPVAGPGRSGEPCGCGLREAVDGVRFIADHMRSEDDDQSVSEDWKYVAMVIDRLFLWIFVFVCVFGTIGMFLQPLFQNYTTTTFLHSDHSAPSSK
# Excerpt: as §1
# [7] = molecular target: T6, serotonin (5HT3A) receptor (Homo sapiens, UniProt P46098); assay: Application of NBT to other Cys-loop receptors; assay type: cell-based; details: listed as NBT
# T6 construct: expressed in transfected cells
# T6 sequence (P46098 24-478): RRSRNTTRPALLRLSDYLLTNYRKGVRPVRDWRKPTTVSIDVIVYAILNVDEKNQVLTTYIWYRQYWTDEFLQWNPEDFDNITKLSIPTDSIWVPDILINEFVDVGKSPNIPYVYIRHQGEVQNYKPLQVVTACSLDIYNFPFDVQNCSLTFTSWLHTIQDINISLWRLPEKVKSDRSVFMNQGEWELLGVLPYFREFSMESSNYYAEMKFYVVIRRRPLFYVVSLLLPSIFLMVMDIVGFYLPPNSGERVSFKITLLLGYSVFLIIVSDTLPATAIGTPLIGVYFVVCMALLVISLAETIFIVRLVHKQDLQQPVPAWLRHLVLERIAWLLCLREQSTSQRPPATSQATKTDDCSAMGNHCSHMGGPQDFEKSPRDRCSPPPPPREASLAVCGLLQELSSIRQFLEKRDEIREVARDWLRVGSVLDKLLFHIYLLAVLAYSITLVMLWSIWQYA
# Excerpt: as §1
# [8] = molecular target: T7, GABAC (ρ1) receptor (Homo sapiens, UniProt P24046); assay: Application of NBT to other Cys-loop receptors; assay type: cell-based; details: listed as NBT
# T7 construct: expressed in transfected cells
# T7 sequence (P24046 22-479): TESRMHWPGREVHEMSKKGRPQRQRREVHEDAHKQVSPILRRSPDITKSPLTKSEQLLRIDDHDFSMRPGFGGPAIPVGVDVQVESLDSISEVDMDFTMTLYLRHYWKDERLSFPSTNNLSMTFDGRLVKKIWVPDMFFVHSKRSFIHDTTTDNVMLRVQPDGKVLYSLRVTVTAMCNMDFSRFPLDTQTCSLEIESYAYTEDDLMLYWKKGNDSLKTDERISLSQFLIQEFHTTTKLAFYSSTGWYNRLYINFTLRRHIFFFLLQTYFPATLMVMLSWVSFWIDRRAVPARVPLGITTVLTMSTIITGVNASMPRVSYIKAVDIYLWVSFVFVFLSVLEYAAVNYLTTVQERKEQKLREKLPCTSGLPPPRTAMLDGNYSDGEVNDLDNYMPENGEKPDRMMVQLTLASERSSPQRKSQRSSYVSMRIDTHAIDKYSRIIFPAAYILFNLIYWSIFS
# Excerpt: as §1
# [9] = molecular target: T8, GABAA (α1β2γ2) receptor (Homo sapiens, UniProt P14867+P18507+P47870); assay: Application of NBT to other Cys-loop receptors; assay type: cell-based; details: listed as NBT
# T8 construct: expressed in transfected cells
# T8 sequence (P47870 25-512): as the sequence (P47870 25-512 limits assumed) above
# T8 sequence (P18507 40-475): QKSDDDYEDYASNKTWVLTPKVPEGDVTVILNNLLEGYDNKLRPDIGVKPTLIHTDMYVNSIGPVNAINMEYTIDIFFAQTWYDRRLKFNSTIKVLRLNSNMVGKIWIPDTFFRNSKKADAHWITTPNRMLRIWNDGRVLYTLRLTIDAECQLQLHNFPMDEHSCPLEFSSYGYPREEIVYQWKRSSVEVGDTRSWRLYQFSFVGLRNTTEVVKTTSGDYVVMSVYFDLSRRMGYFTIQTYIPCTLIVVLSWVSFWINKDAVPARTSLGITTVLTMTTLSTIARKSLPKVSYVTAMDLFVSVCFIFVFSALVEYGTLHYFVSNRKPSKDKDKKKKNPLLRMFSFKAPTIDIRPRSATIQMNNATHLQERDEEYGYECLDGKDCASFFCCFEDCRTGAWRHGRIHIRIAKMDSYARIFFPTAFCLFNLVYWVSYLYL
# T8 sequence (P14867 28-456): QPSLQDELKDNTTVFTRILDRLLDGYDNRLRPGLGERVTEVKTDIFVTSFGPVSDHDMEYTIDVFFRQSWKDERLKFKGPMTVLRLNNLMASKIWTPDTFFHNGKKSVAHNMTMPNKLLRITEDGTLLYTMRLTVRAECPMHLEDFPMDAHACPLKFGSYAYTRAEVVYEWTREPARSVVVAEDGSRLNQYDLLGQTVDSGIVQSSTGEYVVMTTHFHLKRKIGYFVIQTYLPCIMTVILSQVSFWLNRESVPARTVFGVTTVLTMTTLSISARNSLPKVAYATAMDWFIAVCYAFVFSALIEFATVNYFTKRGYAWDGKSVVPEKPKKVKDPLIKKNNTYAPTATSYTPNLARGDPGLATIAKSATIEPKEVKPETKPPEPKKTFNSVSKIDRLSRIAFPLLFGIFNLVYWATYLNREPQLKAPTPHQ
# Excerpt: as §1
# [10] = molecular target: T1, ZACN; assay: Two-electrode voltage-clamp, ZACN expressed in Xenopus laevis oocytes: agonist-induced current; assay type: cell-based; set-up: host or cells: Xenopus laevis oocytes injected with cRNA (pGEMHE vector, T7 transcript)
# Excerpt: The cDNA encoding wild type, human ZACN was purchased from OpenBiosystems, and cloned into the pGEMHE vector in the T7 orientation. For cRNA synthesis, cDNA templates were PCR amplified using primers that cover the M13 forward and reverse regions and high fidelity Phusion DNA polymerase (New England Biolab, Ipswich, Mass., USA). PCR products were then purified and served as templates for cRNA synthesis. cRNAs were transcribed by T7 RNA polymerase (Promega, Madison, Wis., USA) using standard in vitro transcription protocols. After digestion of the DNA template by RNase-free DNase I, cRNAs were purified and resuspended in diethyl pyrocarbonate (DEPC)-treated water. cRNA integrity was examined on a 1% agarose gel, and cRNA concentration was determined by optical density measurements at 260 nm using an Eppendorf Biophotometer.
# Oocytes were harvested from female Xenopus laevis (Xenopus I, Ann Arbor, Mich., USA), using the protocol “Xenopus Care and Use” approved by the Institutional Animal Care and Use Committee of the St. Joseph's Hospital and Medical Center. Stage VI oocytes were selected and incubated at 16° C. before injection. Micropipettes for injection were pulled from borosilicate glass (Drummond Scientific, Broomall, Pa., USA) on a Sutter P87 horizontal puller, and the tips were cut with forceps to ≈40 μm in diameter. cRNAs encoding ZACN was drawn up into the micropipette and injected into oocytes with a Nanoject micro-injection system (Drummond Scientific) in a total volume of ˜60 nl and total cRNA of ˜20 ng for each oocyte.
# Two to 5 days after injection, oocytes expressing ZACN were placed in a home-made, small volume chamber and a 16-channel manifold, continuously perfused with oocyte Ringer's solution (OR2), which consisted of (in mM) 92.5 NaCl, 2.5 KCl, 1 CaCl2, 1 MgCl2 and 5 HEPES, pH 7.5. ValveLink 16 computer-controlled perfusion system was used to switch solutions between the OR2 and a test solution. The perfusion chamber was grounded through an agar salt bridge to avoid alterations in junction potential between the Ag/AgCl grounding electrode and solution when solution/drug changes occurred. Oocytes were voltage-clamped at −70 mV to measure agonist-induced currents using an AxoClamp 900A amplifier (Axon Instruments, Foster City, Calif., USA). The current signal was low-pass filtered at 20 Hz with the built-in 4-pole low-pass Bessel filter and digitized at 100 Hz with a Digidata1440a and pClamp 10 software (Molecular Devices).
# For each oocyte, concentration-inhibition curves for drug-induced inhibition of zinc-activated current responses or concentration response curves for agonist-induced current of the ZACN were fit to the Hill equation using least squares methods (Prism 6.0, GraphPad Software, Inc., San Diego, Calif., USA) to derive IC50 or EC50 values (the concentration required for inducing a half maximal current), Hill coefficients (the slope factor), and maximum current levels in absolute terms. Current levels in each oocyte were normalized to the maximum current in the absence of the inhibitor, allowing normalized data to be averaged across multiple oocytes and to be fit again to the Hill equation. All data are presented as mean±SEM (standard error).
# [11] = tested on: iTreg cells; assay: Calcium influx assay in Treg cells; assay type: cell-based, human
# Experimental: Treg cells were loaded with calcium sensitive fluorescent dye X-Rhod-1 AM (cell permeant) (2 μM) for 60 min at room temperature. After wash, the cells were placed onto a glass-bottom petri dish with coated glass surface to allow cells attached to the glass surface. The fluorescence was detected using a microscope-based detection system with a different filter set (excitation filter ET560/40x, T585LPxr dichroic mirror, and ET630/75m emission filter). The fluorescence signal, first in the absence and then in the presence of a ZACN agonist, was low-pass filtered with a signal filter at 1 Hz and digitized with a Digidata1440 digitizer at 10 Hz.
structure (smiles),measurement,setting,value
COc1cc2c3cc1Oc1cc(ccc1O)C[C@@H]1c4c(cc(OC)c(O)c4Oc4ccc(cc4)C[C@@H]3N(C)CC2)CC[N+]1(C)C [d-tubocurarine],effect on spontaneous activity of ZACN in HEK cells,[1],blocked
same,influence on iTreg suppression function,[2],inhibited the iTreg-induced immunosuppression of T cell division
COc1cc(-c2ccc(-n3nc(-c4ccccc4)n[n+]3-c3ccc([N+](=O)[O-])cc3)c(OC)c2)ccc1-n1nc(-c2ccccc2)n[n+]1-c1ccc([N+](=O)[O-])cc1 [Nitro Blue Tetrazolium],response to NBT application,[3],elicited no response; also recorded: no agonist or antagonist effect
same,response to NBT application,[4],elicited no response; also recorded: no agonist or antagonist effect
same,response to NBT application,[5],elicited no response; also recorded: no agonist or antagonist effect
same,response to NBT application,[6],elicited no response; also recorded: no agonist or antagonist effect
same,response to NBT application,[7],elicited no response; also recorded: no agonist or antagonist effect
same,response to NBT application,[8],elicited no response; also recorded: no agonist or antagonist effect
same,response to NBT application,[9],elicited no response; also recorded: no agonist or antagonist effect
same,"ZACN recovery from activation, compared with ZnCl2",[10],much slower
same,agonist activity on human ZACN (words),[10],selective agonist
"[Cl-].[Cl-].[Zn+2] [ZnCl2, Zinc chloride]",intracellular calcium in iTreg cells,[11],intracellular calcium increase
same,EC50,"[1]; HEK cells, read-out: ZnCl2 EC50 for ZACN expressed in HEK cells",0.54 mM
same,activation of ZACN in HEK cells,[1],activated this receptor dose-dependently
same,ZnCl2 EC50 in Xenopus oocytes relative to HEK cells (fold greater),[10],approximately 3 fold
same,approximate EC80 Zn2+ concentration for this receptor,[10],~2 mM
same,EC50,"[10]; ZACN expressed in X. laevis oocytes, read-out: EC50 in activating ZACN",1.65 ± 0.056 mM
same,EC50,"[10]; ZACN expressed in X. laevis oocytes, read-out: EC50 on ZACN",1.66 mM
same,EC50,[10]; read-out: approximate EC50 Zn2+ concentration for this receptor,~0.5 mM
same,effect on T cell viability,"[2]; high concentration, 1 mM",killed T cells
